# Source: patent publication US12528816B2, “Substituted imidazo [1,2-b] pyridazines and [1, 2, 4] triazolo [ 4,3-b] pyridazines as camkii inhibitors” (Cardurion Pharmaceuticals, INC., priority 2020, dated 2026)
# Molecular target: T1, human CaMKIIδ (Homo sapiens, UniProt Q13557)
# T1 construct: Full-length, glutathione-S-transferase(GST)-tagged, human CaMKIIδ was purchased from Carna Biosciences; purchased Carna Biosciences (CaMKIIδ); Wako Pure Chemical Industries (calmodulin) 02-111
# Experiment: Evaluation of in vitro CaMKII inhibitory activity (binding assay, TR-FRET)
# Conditions: human CaMKIIδ, TR-FRET binding assay; class symbols A/B/C; read-out: Act (CaMKII inhibitory activity, binding assay)
# Outline: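 Inhibitors, in eight concentrations of 4-fold dilution, were incubated 1 h at room temperature with a protein–fluorescent probe premix preformed 30 min on ice, containing calmodulin and terbium anti-GST antibody. Displacement read by TR-FRET in duplicate; IC50 by logistic fitting.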
row,Structure (SMILES),IC50
1,C[C@@H](Cn1cnnn1)Oc1cc(-c2ccn3ncc(-c4ccccn4)c3n2)ccc1F [compound 4],< 10 nM
2,CC(C)Oc1cccc(-c2cnc3ccc(-c4ccc(F)c(O[C@@H](C)Cn5cnnn5)c4)nn23)c1C#N [compound 213],< 10 nM
3,C[C@@H](Cn1cnnn1)Oc1cc(-c2ccn3ncc(-c4cnn(C(F)F)c4)c3n2)ccc1F [compound 144],< 10 nM
4,C[C@@H](Cn1cnnn1)Oc1cc(-c2ccc3ncc(-c4cc(C(=O)O)ccc4C#N)n3n2)ccc1F [compound 147],10 to 100 nM
5,C[C@@H](Cn1cnnn1)Oc1cc(-c2ccc3ncc(-c4cnn(CCCO)c4C#N)n3n2)ccc1F [compound 225],< 10 nM
6,C[C@@H](Cn1cnnn1)Oc1cc(-c2ccn3ncc(-c4cnn(C)c4C#N)c3n2)ccc1F [compound 163],< 10 nM
7,COc1ccccc1-c1cnn2ccc(-c3ccc(F)c(O[C@@H](C)Cn4cnnn4)c3)nc12 [compound 31],< 10 nM
8,C[C@@H](Cn1cnnn1)Oc1cc(-c2ccn3ncc(-c4ccc[nH]c4=O)c3n2)ccc1F [compound 167],< 10 nM
9,C[C@@H](Cn1cnnn1)Oc1cc(-c2ccn3ncc(-c4ccn(CCN5CCOCC5)n4)c3n2)ccc1F [compound 160],< 10 nM
10,C[C@@H](Cn1nnnc1N)Oc1cccc(-c2ccn3ncc(-c4cccs4)c3n2)c1 [compound 59],< 10 nM
11,CC(=O)N(C)CCOc1cccc(-c2cnc3ccc(-c4ccc(F)c(O[C@@H](C)Cn5cnnn5)c4)nn23)c1C#N [compound 205],< 10 nM
12,C[C@@H](Cn1cnnn1)Oc1cccc(-c2ccn3ncc(-c4cccc(C(=O)NCCc5cccnc5)c4)c3n2)c1 [compound 108],< 10 nM
13,C[C@@H](Cn1cnnn1)Oc1cc(-c2ccn3ncc(-c4cncc(C#N)c4)c3n2)ccc1F [compound 156],< 10 nM
14,COC(=O)c1ccnc(-n2cnc3ccc(-c4ccc(F)c(O[C@@H](C)Cn5cnnn5)c4)nc32)c1 [compound 14],< 10 nM

# Same assay, conditions: in vitro CaMKII inhibitory activity (binding assay), human CaMKIIδ; read-out: Act
row,Structure (SMILES),IC50
1,"C[C@@H](Cn1cnnn1)Oc1cccc(-c2ccc3ncc(-c4cc(F)cc(OC(F)F)c4C#N)n3n2)n1 [Example 409, 2-(difluoromethoxy)-4-fluoro-6-[6-(6-{[(2S)-1-(1H-tetrazol-1-yl)propan-2-yl]oxy}pyridin-2-yl)imidazo[1,2-b]pyridazin-3-yl]benzonitrile]",< 10 nM
2,C[C@@H](Cn1cnnn1)Oc1cccc(-c2ccc3ncc(-c4cc(=O)[nH]cc4C#N)n3n2)c1 [compound 318],< 10 nM
3,C[C@@H](Cn1cnnn1)Oc1cccc(-c2ccc3ncc(-c4cc(=O)[nH]cc4C#N)n3n2)n1 [compound 464],< 10 nM
4,COCc1cc(F)cc(-c2cnc3ccc(-c4cccc(O[C@@H](C)Cn5cnnn5)n4)nn23)c1C#N [compound 462],< 10 nM
5,C[C@@H](Cn1cnnn1)Oc1cccc(-c2ccc3ncn(-c4cc(Cl)ccc4C#N)c3n2)n1 [compound 442],< 10 nM
6,COc1cnc(-c2cnc3ccc(-c4cccc(O[C@@H](C)Cn5cnnn5)c4)nn23)c(C#N)c1 [compound 281],< 10 nM
7,C[C@@H](Cn1cnnn1)Oc1cccc(-c2ccn3ncc(-c4cnccc4C#N)c3n2)c1 [compound 310],< 10 nM
8,C[C@@H](Cn1cnnn1)Oc1cccc(-c2ccc3ncc(-c4cc[n+]([O-])cc4C#N)n3n2)c1 [compound 282],10 to 100 nM
9,C[C@@H](Cn1cnnn1)Oc1ccnc(-c2ccc3ncn(-c4cc(F)ccc4C#N)c3n2)c1 [compound 330],< 10 nM
10,Cc1c[nH]c(=O)c(-c2cnc3ccc(-c4cccc(O[C@@H](C)Cn5cnnn5)c4)nn23)c1 [compound 329],< 10 nM
11,C[C@@H](Cn1cnnn1)Oc1cccc(-c2ccc3ncc(-c4c(C#N)ccc(F)c4F)n3n2)n1 [compound 422],< 10 nM
12,C[C@@H](Cn1cnnn1)Oc1cncc(-c2ccc3ncn(-c4cccc(Cl)c4C#N)c3n2)n1 [compound 446],> 100 nM
13,COc1cc(F)c(C#N)c(-n2cnc3ccc(-c4cccc(O[C@@H](C)Cn5cnnn5)n4)nc32)c1 [compound 424],< 10 nM
